Values of other authors, collected in US20190175610A1 (priority 2017, published 2019).

Conditions: athletes, during exercise after oral supplementation

C[N+](C)(C)C[C@H](O)CC(=O)[O-] [L-carnitine, γ-trimethylamino-β-hydroxybutyrate]
benefit on fatty acid metabolism: no benefit
